In the supplement of paper PMC10307832:

Columns and labels:
Assay in all cases: relative viability (nuclei count vs DMSO), 5 days (fraction); higher = more cells survive
[1] = compound: CC1=C(C(=O)N2C=CSC2=N1)CCN3CCC(=C(C4=CC=CC=C4)C5=CC=C(C=C5)F)CC3 + Cc1nc(Nc2ncc(C(=O)Nc3c(C)cccc3Cl)s2)cc(N2CCN(CCO)CC2)n1 [Dasatinib] (partner 0.075 µM)
Method in brief: (§1)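 Medians of duplicate plates are given as relative viability. That measure is the nuclei count in treated wells divided by the count in vehicle wells. Counts were taken on 4× images of lung cancer cell lines in 1536-well plates, 5 days after pin-tool dosing the day after seeding with one drug alone or a fixed anchor-drug dose plus five library-drug doses (not always all listed) in √10 steps.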

[2] = compound: CC1=C(C(=O)N2C=CSC2=N1)CCN3CCC(=C(C4=CC=CC=C4)C5=CC=C(C=C5)F)CC3 + CC(C)C[C@H](NC(=O)[C@H](Cc1ccccc1)NC(=O)c1cnccn1)B(O)O [Bortezomib] (partner 0.002 µM)
Method in brief: as §1

[3] = compound: CC1=C(C(=O)N2C=CSC2=N1)CCN3CCC(=C(C4=CC=CC=C4)C5=CC=C(C=C5)F)CC3 + CC1(C)CCC(c2ccc(Cl)cc2)=C(CN2CCN(c3ccc(C(=O)NS(=O)(=O)c4ccc(N[C@H](CCN5CCOCC5)CSc5ccccc5)c(S(=O)(=O)C(F)(F)F)c4)cc3)CC2)C1 [Navitoclax] (partner 0.5 µM)
Method in brief: as §1

[4] = compound: CC1=C(C(=O)N2C=CSC2=N1)CCN3CCC(=C(C4=CC=CC=C4)C5=CC=C(C=C5)F)CC3 + CCNC(=O)c1noc(-c2cc(C(C)C)c(O)cc2O)c1-c1ccc(CN2CCOCC2)cc1 [Luminespib] (partner 0.01 µM)
Method in brief: as §1

Row | Cell Line | relative viability ([1]; first compound 0.08 µM) | relative viability ([1]; first compound 0.253 µM) | relative viability ([1]; first compound 0.8 µM) | relative viability ([1]; first compound 2.53 µM) | relative viability ([1]; first compound 8 µM) | relative viability ([2]; first compound 0.253 µM) | relative viability ([2]; first compound 0.8 µM) | relative viability ([2]; first compound 2.53 µM) | relative viability ([2]; first compound 8 µM) | relative viability ([3]; first compound 0.253 µM) | relative viability ([3]; first compound 0.8 µM) | relative viability ([3]; first compound 2.53 µM) | relative viability ([3]; first compound 8 µM) | relative viability ([4]; first compound 0.08 µM) | relative viability ([4]; first compound 0.253 µM) | relative viability ([4]; first compound 0.8 µM) | relative viability ([4]; first compound 2.53 µM) | relative viability ([4]; first compound 8 µM) | relative viability ([2]; first compound 0.08 µM) | relative viability ([3]; first compound 0.08 µM)
1 | HCC-366 | 0.697 | 0.631 | 0.711 | 0.545 | 0.247 | 1.14 | 1.18 | 1.04 | 0.308 | 1.09 | 1.04 | 1.13 | 0.343 |  |  |  |  |  |  | 
2 | HCC-827 | 0.212 | 0.288 | 0.38 | 0.3 | 0.265 | 0.843 | 1.01 | 1.11 | 0.987 | 1.1 | 1.01 | 1.07 | 0.946 | 0.742 | 0.606 | 0.552 | 0.781 | 0.342 | 0.975 | 1.06
3 | HOP-62 | 0.595 | 0.482 | 0.621 | 0.575 | 0.548 | 0.628 | 1.03 | 0.922 | 0.323 | 0.989 | 1.23 | 0.796 | 0.466 | 0.926 | 0.909 | 0.923 | 0.92 | 0.461 | 0.731 | 0.516
4 | IA-LM |  |  |  |  |  | 0.757 | 0.711 | 0.843 | 0.63 | 0.7 | 0.823 | 0.884 | 0.523 |  |  |  |  |  | 0.621 | 0.841
5 | LC-2-ad | 0.766 | 0.538 | 0.422 | 0.644 | 0.497 | 0.799 | 1.03 | 1.22 | 0.827 | 0.393 | 0.489 | 0.5 | 0.335 | 1.27 | 1.36 | 1.12 | 1.19 | 0.918 | 1.05 | 0.384
6 | LCLC-97TM1 | 0.857 | 0.773 | 0.949 | 0.92 | 0.658 | 0.484 | 0.249 | 0.408 | 0.597 | 0.306 | 0.347 | 0.537 | 0.249 | 0.709 | 0.831 | 0.789 | 0.938 | 0.514 |  | 0.263
7 | LCLC-103H | 0.498 | 0.409 | 0.439 | 0.424 | 0.339 | 1.06 | 0.957 | 1.22 | 0.903 |  |  |  |  | 0.791 | 0.947 | 0.864 | 0.93 | 0.594 | 1.06 | 
8 | LK-2 | 0.273 | 0.249 | 0.354 | 0.282 | 0.268 |  |  |  |  | 0.962 | 1.11 | 1.05 | 0.703 | 0.154 | 0.21 | 0.186 | 0.191 | 0.162 |  | 0.741
9 | LOU-NH91 | 0.527 | 0.586 | 0.557 | 0.594 | 0.435 | 0.507 | 0.483 | 0.481 | 0.55 | 0.663 | 0.758 | 0.698 | 0.604 | 0.377 | 0.34 | 0.335 | 0.366 | 0.361 | 0.508 | 0.625
10 | NCI-H358 | 0.175 | 0.21 | 0.133 | 0.153 | 0.218 |  |  |  |  |  |  |  |  |  | 0.339 | 0.384 | 0.307 | 0.261 |  | 
11 | NCI-H650 | 0.474 | 0.504 | 0.388 | 0.546 | 0.46 | 0.696 | 0.877 | 0.817 | 0.599 |  |  |  |  | 0.573 | 0.827 | 0.951 | 0.877 | 0.683 |  | 
12 | NCI-H661 | 0.862 | 0.847 | 0.75 | 0.913 | 0.628 | 0.776 | 0.88 | 0.871 | 0.697 |  |  |  |  | 1.03 | 0.984 | 0.928 | 1.04 | 0.598 | 0.764 | 
13 | NCI-H1299 |  |  |  |  |  | 1.04 | 1.04 | 1.02 | 0.702 | 1.03 | 1.03 | 1.06 | 0.654 |  |  |  |  |  | 1.07 | 1.14
14 | NCI-H1395 | 0.417 | 0.406 | 0.416 | 0.394 | 0.438 |  |  |  |  | 1.46 | 1.02 | 1.05 | 1.05 | 0.606 | 0.746 | 1.01 | 0.955 | 0.776 |  | 1.19
15 | NCI-H1563 | 0.502 | 0.531 | 0.485 | 0.5 | 0.5 | 0.957 | 0.852 | 0.827 | 0.722 |  |  |  |  | 0.643 | 0.572 | 0.49 | 0.508 | 0.534 | 0.928 | 
16 | NCI-H1703 |  |  |  |  |  | 0.316 | 0.256 | 0.359 | 0.263 | 1.13 | 1.1 | 1.3 | 0.627 |  |  |  |  |  | 0.262 | 1.19
17 | NCI-H1793 | 0.363 | 0.328 | 0.415 | 0.467 | 0.233 |  |  |  |  | 0.512 | 0.395 | 0.507 | 0.374 | 0.167 | 0.207 | 0.161 | 0.178 | 0.168 |  | 0.376
18 | NCI-H1944 | 0.243 | 0.237 | 0.193 | 0.215 | 0.242 |  |  |  |  | 0.916 | 1.02 | 1.06 | 1.06 | 0.782 | 0.926 | 0.751 | 0.775 | 0.584 |  | 1.03
19 | NCI-H2170 | 0.516 | 0.472 | 0.65 | 0.669 | 0.496 |  |  |  |  | 0.605 | 0.649 | 0.492 | 0.58 | 0.516 | 0.733 | 0.745 | 0.838 | 0.537 |  | 0.515
20 | NCI-H2342 | 0.255 | 0.304 | 0.291 | 0.306 | 0.247 |  |  |  |  |  |  |  |  | 0.657 | 0.791 | 0.789 | 0.66 | 0.619 |  | 
21 | SK-MES-1 | 0.383 | 0.273 | 0.27 | 0.334 | 0.369 |  |  |  |  | 1.21 | 1.41 | 1.47 | 0.86 | 0.947 | 0.832 | 0.689 | 0.931 | 0.594 |  | 1.36
